{"source": "the supplement of paper PMC10307832", "assay_in_all_cases": "relative viability (nuclei count vs DMSO), 5 days (fraction); higher = more cells survive", "key": {"UMC-11": {"tested_on": "UMC-11", "method_in_brief": "(§1)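 Medians of duplicate plates are given as relative viability. That measure is the nuclei count in treated wells divided by the count in vehicle wells. Counts were taken on 4× images of lung cancer cell lines in 1536-well plates, 5 days after pin-tool dosing the day after seeding with one drug alone or a fixed anchor-drug dose plus five library-drug doses (not always all listed) in √10 steps.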"}, "HCC-15": {"tested_on": "HCC-15", "method_in_brief": "as §1"}, "NCI-H1623": {"tested_on": "NCI-H1623", "method_in_brief": "as §1"}, "HCC-44": {"tested_on": "HCC-44", "method_in_brief": "as §1"}, "NCI-H1395": {"tested_on": "NCI-H1395", "method_in_brief": "as §1"}, "NCI-H1755": {"tested_on": "NCI-H1755", "method_in_brief": "as §1"}, "NCI-H1648": {"tested_on": "NCI-H1648", "method_in_brief": "as §1"}, "EKVX": {"tested_on": "EKVX", "method_in_brief": "as §1"}, "LCLC-103H": {"tested_on": "LCLC-103H", "method_in_brief": "as §1"}}}
{"compound": "COc1cc2nccc(Oc3ccc(NC(=O)Nc4cc(C)on4)c(Cl)c3)c2cc1OC", "note": "[Tivozanib] + COc1cccc2cc(-c3nc([C@H]4CC[C@H](C(=O)O)CC4)n4ncnc(N)c34)[nH]c12 [OSI-027] (partner 0.5 µM)", "values": [{"measurement": "relative viability", "setting": "UMC-11; first compound 0.005 µM", "result": 0.491}, {"measurement": "relative viability", "setting": "UMC-11; first compound 0.01581 µM", "result": 0.451}, {"measurement": "relative viability", "setting": "UMC-11; first compound 0.05 µM", "result": 0.536}, {"measurement": "relative viability", "setting": "UMC-11; first compound 0.5 µM", "result": 0.426}, {"measurement": "relative viability", "setting": "HCC-15; first compound 0.005 µM", "result": 0.547}, {"measurement": "relative viability", "setting": "HCC-15; first compound 0.01581 µM", "result": 0.672}, {"measurement": "relative viability", "setting": "HCC-15; first compound 0.05 µM", "result": 0.711}, {"measurement": "relative viability", "setting": "HCC-15; first compound 0.1581 µM", "result": 0.571}, {"measurement": "relative viability", "setting": "HCC-15; first compound 0.5 µM", "result": 0.61}, {"measurement": "relative viability", "setting": "NCI-H1623; first compound 0.005 µM", "result": 0.414}, {"measurement": "relative viability", "setting": "NCI-H1623; first compound 0.01581 µM", "result": 0.445}, {"measurement": "relative viability", "setting": "NCI-H1623; first compound 0.05 µM", "result": 0.431}, {"measurement": "relative viability", "setting": "NCI-H1623; first compound 0.1581 µM", "result": 0.407}, {"measurement": "relative viability", "setting": "NCI-H1623; first compound 0.5 µM", "result": 0.459}, {"measurement": "relative viability", "setting": "HCC-44; first compound 0.005 µM", "result": 0.483}, {"measurement": "relative viability", "setting": "HCC-44; first compound 0.01581 µM", "result": 0.544}, {"measurement": "relative viability", "setting": "HCC-44; first compound 0.05 µM", "result": 0.485}, {"measurement": "relative viability", "setting": "HCC-44; first compound 0.1581 µM", "result": 0.41}, {"measurement": "relative viability", "setting": "HCC-44; first compound 0.5 µM", "result": 0.464}, {"measurement": "relative viability", "setting": "NCI-H1395; first compound 0.005 µM", "result": 0.52}, {"measurement": "relative viability", "setting": "NCI-H1395; first compound 0.01581 µM", "result": 0.635}, {"measurement": "relative viability", "setting": "NCI-H1395; first compound 0.05 µM", "result": 0.648}, {"measurement": "relative viability", "setting": "NCI-H1395; first compound 0.1581 µM", "result": 0.546}, {"measurement": "relative viability", "setting": "NCI-H1395; first compound 0.5 µM", "result": 0.528}, {"measurement": "relative viability", "setting": "NCI-H1755; first compound 0.005 µM", "result": 0.685}, {"measurement": "relative viability", "setting": "NCI-H1755; first compound 0.01581 µM", "result": 0.77}, {"measurement": "relative viability", "setting": "NCI-H1755; first compound 0.05 µM", "result": 0.733}, {"measurement": "relative viability", "setting": "NCI-H1755; first compound 0.1581 µM", "result": 0.646}, {"measurement": "relative viability", "setting": "NCI-H1755; first compound 0.5 µM", "result": 0.612}, {"measurement": "relative viability", "setting": "NCI-H1648; first compound 0.005 µM", "result": 0.255}, {"measurement": "relative viability", "setting": "NCI-H1648; first compound 0.01581 µM", "result": 0.25}, {"measurement": "relative viability", "setting": "NCI-H1648; first compound 0.05 µM", "result": 0.221}, {"measurement": "relative viability", "setting": "NCI-H1648; first compound 0.1581 µM", "result": 0.218}, {"measurement": "relative viability", "setting": "NCI-H1648; first compound 0.5 µM", "result": 0.258}, {"measurement": "relative viability", "setting": "EKVX; first compound 0.005 µM", "result": 0.665}, {"measurement": "relative viability", "setting": "EKVX; first compound 0.01581 µM", "result": 0.735}, {"measurement": "relative viability", "setting": "EKVX; first compound 0.05 µM", "result": 0.67}, {"measurement": "relative viability", "setting": "EKVX; first compound 0.1581 µM", "result": 0.585}, {"measurement": "relative viability", "setting": "EKVX; first compound 0.5 µM", "result": 0.731}, {"measurement": "relative viability", "setting": "LCLC-103H; first compound 0.005 µM", "result": 0.475}, {"measurement": "relative viability", "setting": "LCLC-103H; first compound 0.01581 µM", "result": 0.481}, {"measurement": "relative viability", "setting": "LCLC-103H; first compound 0.05 µM", "result": 0.423}, {"measurement": "relative viability", "setting": "LCLC-103H; first compound 0.1581 µM", "result": 0.369}, {"measurement": "relative viability", "setting": "LCLC-103H; first compound 0.5 µM", "result": 0.498}]}
